Source: PMC12662929, “MR2938 relieves DSS-induced colitis in mice through inhibiting NF-κB signaling and improving epithelial barrier” (Marine Life Science & Technology, 2025)

Legend:
[1] = system: DSS-induced colitis C57BL/6 mice; assay: Acute DSS-induced murine colitis model; type: in vivo, mouse; conditions: for body weight: MR2938 50 or 100 mg/kg or 5-ASA 100 mg/kg, oral
Method: After 1 week of acclimation, the C57BL/6 mice were randomly divided into the following groups (n = 6/group): control group, model group (DSS), DSS + 5-aminosalicylic acid (5-ASA, positive group, 100 mg/kg), DSS + MR2938 (100 mg/kg) and DSS + MR2938 (50 mg/kg). Colitis was induced by administration of 3% DSS drinking water for 5 consecutive days. Water consumption was monitored daily. At the same time, the mice in each group were given the corresponding agents: 5-ASA (100 mg/kg) and MR2938 (50 mg/kg or 100 mg/kg). The dosages of 5-ASA and MR2938 were adopted based on previous reports and our pilot trial. MR2938 or 5-ASA was dissolved in a mixture of saline and DMSO (95:5) to provide the desired concentrations.
Changes in bodyweight were assessed daily over the 9-day experimental period. On the last day of the experiment, mice were sacrificed, and the entire colon was excised. Colon length was measured and gently washed with physiological saline. Then two pieces with 0.5 cm in length of the distal section were used for histological assessment and immunofluorescence staining. The remaining colon tissue samples were used to determine MPO activity and the concentrations of cytokines.
Distal colons were harvested, fixed in 4% paraformaldehyde, and embedded in paraffin. Five-μm-thick tissue sections were stained with hematoxylin and eosin (HE) for light microscopic examination using a DP73 light microscope (Olympus, Tokyo, Japan). Colonic mucosa damage score was assessed as previously described. To count colonic goblet cells, fixed colonic tissues were also stained in Alcian blue for 10–15 min and dehydrated with 100% alcohol and xylene, followed by image acquisition on a microscope.
The serum was obtained from the collected blood samples through centrifugation at 3500 g for 15 min at 4 °C. A portion of frozen colon samples was homogenized with RIPA lysis buffer (Solarbio, Beijing, China) to extract total proteins. The homogenate was centrifuged at 12,000 × g at 4 °C for 15 min. The protein contents were quantified using a bicinchoninic acid (BCA) protein assay kit (Solarbio, Beijing, China) according to the manufacturer’s instructions. The concentrations of proinflammatory cytokines IL-1β, IL-6, and TNF-α in the serum and colon tissue were measured by ELISA (Jingmei Biotech, China) according to the manufacturers’ recommendations. MPO activity was measured using a myeloperoxidase assay kit (Jingmei Biotech, China).
(§1) Total RNAs of colon tissues were extracted using tissue RNA kit (Omega Biotek, China) following the manufacturer’s protocol. cDNA was obtained from RNA samples using ReverTra Ace qPCR RT Master Mix with gDNA Remover (TOYOBO, Japan). Quantitative real-time PCR was performed by Applied Biosystems® QuantStudio Q5 instrument (Thermo, USA) with SYBR qPCR Master Mix (Vazyme, China). The relative gene expression was measured and normalized to β-actin expression using 2^−ΔΔCt method.
(§2) For immunofluorescence staining, the frozen colon slides or cells were fixed in 4% paraformaldehyde, permeabilized with 0.1% Triton X-100, blocked non-specific proteins in 5% BSA/PBS for 1 h, and incubated overnight at 4 °C with Occludin, ZO-1 or p65 primary antibodies. The slides were then washed with phosphate buffer (PBS) and incubated with Dylight 488 labeling secondary antibody for 1 h at room temperature. Finally, the colon slides were stained with DAPI for 10 min, and then imaged and captured using ECHO microscope.

[2] = system: NF-κB signaling in Raw264.7 cells; assay: LPS-induced inflammation / NF-κB signaling in Raw264.7 macrophages; type: cell-based
Method: Raw264.7 cells and Caco-2 cells were obtained from the Cell Bank of the Chinese Academy of Sciences (Shanghai, China) and cultured in high-glucose DMEM medium supplemented with 10% fetal bovine serum (FBS) at 37 ℃ in a 5% CO2 atmosphere. Raw264.7 cells were seeded and incubated in six-well plates (8 × 10^5 cells/well) overnight, and then treated with different concentrations of MR2938 for 2 h. Then Raw264.7 cells were activated by lipopolysaccharide (LPS, 100 ng/mL, Sigma-Aldrich Co., Shanghai, CN) for 2 h or 6 h for transcription or protein level analysis.
as §1, §2
Total proteins were extracted with RIPA lysis buffer. After determining the protein concentration by the BCA assay kit, an equal amount of protein was subjected to SDS-PAGE and electro-transferred to a PVDF membrane. The membrane was immune detected with specific antibodies overnight at 4 °C. Proteins were quantified by Image J software. The target antibodies against p65, phosphorylated p65, IκBα, p-IκBα, TLR4, NLRP3, caspase-1, IL-1β, and β-actin were purchased from Proteintech or Cell Signaling Technology.

NO production = system: NO production; parameters: method as in Lv et al. 2023; conditions: ref Lv et al. 2023; cited from earlier work
AChE = system: AChE; parameters: method as in Lv et al. 2023; conditions: ref Lv et al. 2023; cited from earlier work
Caco-2 cells = assay: LPS-induced tight junction disruption in Caco-2 cells (immunofluorescence); type: cell-based
Method: Caco-2 cells were seeded and incubated in 24-well plates (1 × 10^5 cells/well) for 48 h and treated with 10 μmol/L of MR2938 for 2 h. Then 100 ng/mL of LPS was added for 24 h to induce tight function disruption.
as §2

[3] = Brain permeability in mice after i.p. administration; type: in vivo, mouse; conditions: n=3
Method: Table S2. Concentration of MR2938 in brain after its i.p. administration (6.5 mg/kg)

[4] = system: proinflammatory cytokines mRNA; parameters: method as in Lv et al. 2023; conditions: 2.5 μmol/L; ref Lv et al. 2023; cited from earlier work
[5] = In vivo PK study in SD rats; conditions: plasma, rat
Method: MR2938 was synthesized in-house following previously reported procedure (Lv et al. [2023]), and confirmed by NMR and HPLC chromatography (purity > 95%). To detect the pharmacokinetic characters of MR2938 in the plasma, the SD rats were orally and intravenous (i.v.) administered with MR2938 at a dose of 10 mg/kg and 3 mg/kg, respectively. The vehicle consisted of 10% DMSO, 30% saline, and 60% PEG400. Plasma samples were collected at 5 min, 15 min, 30 min and 1 h, 2 h, 4 h, 6 h, 8 h, 12 h, and 24 h after administration. After analyzing the concentration of MR2938 via LC–MS, the values of Cmax, Tmax, T1/2, Cl, AUClast, and AUCInf were calculated (Hu et al. [2018]). The bioavailability of MR2938 from the p.o. was calculated by comparing the area under the concentration–time curve (AUCInf) for the […] dose and that for the i.v. dose.

## Nc1ccc(O)c(C(=O)O)c1 [5-ASA, 5-aminosalicylic acid, reference compound]
[1]; 3% DSS
  body weight: marked improvement

## O=C(c1ccc(Nc2nccc(-c3cc4ccccc4s3)n2)cc1)N1CCC(N2CCCC2)CC1 [IKK16, reference compound]
[2]; western blot, NF-κB pathway blocked
  LPS-elevated expression level of NLRP3: obviously decreased

## COc1cc(OC)c2c(=O)[nH]c(-c3ccc(N4CCN(C)CC4)cc3)nc2c1 [MR2938]
[1]; 100 mg/kg
  Occludin and ZO-1 proteins in colon (immunofluorescence), comparison with 5-ASA: as effective as 5-ASA
[1]; 100 mg/kg vs colitis group, no statistical difference
  mRNA levels of Occludin, ZO-1 and claudin-1 in colon: upregulated
[1]; 3% DSS, 100 mg/kg oral, similar to control group, significantly longer than 5-ASA group
  colon length (shortening): greatly relieved
[1]; 3% DSS
  body weight: marked improvement
[1]; 3% DSS, oral administration
  inflammatory cell infiltration, mucosal damage and overall colonic damage score (HE histology): obvious attenuation
[1]; DSS-induced
  concentration of MPO in colon: slight decrease
  concentration of MPO in serum: slight decrease
[1]; ELISA, colon tissue
  colonic level of IL-1β: decreased
  colonic level of TNF-α: decreased
[1]; ELISA, 50 mg/kg and 100 mg/kg
  IL-1β in mouse serum: significant decrease
  TNF-α in mouse serum: significant decrease
[1]; ELISA, 50 mg/kg group compared with 100 mg/kg group
  serum IL-6 level: no statistical difference between the two groups
[1]; RT-qPCR
  gene transcription of IL-1β in colon: noticeably inhibited
  gene transcription of TNF-α in colon: noticeably inhibited
[1]; RT-qPCR, 100 mg/kg, compared with 5-ASA
  transcription of IL-6 in colon: more favorable effects on the transcription of IL-6 than 5-ASA
[1]; colitis group vs treatment group
  GPx in colon: no significant difference
[1]; dose-dependent, 50 and 100 mg/kg
  Occludin and ZO-1 proteins in colon (immunofluorescence): partially alleviate the depletion
[1]; similar to control group
  mucin-secreting goblet cells in colonic epithelia (Alcian blue staining): rescued the differentiation of mucin-producing goblet cells
[1]; treatment group vs control groups
  organ indexes of mice: no obvious differences
[1]; vs DSS group
  production of MDA in colon: significantly suppressed
NO production
  IC50: 3.29 µM
AChE
  IC50: 5.04 µM
[2]; 10 μM pre-treatment, LPS activation, immunofluorescence
  NF-κB fluorescence intensity / subcellular location: dropped and was mostly accumulated in the cytoplasm
[2]; LPS stimulated, western blot
  total p65: slightly downregulated
[2]; LPS stimulated, western blot, dose-dependent
  phosphorylation of IκBα and p65: effectively inhibited
[2]; LPS stimulated, decrease did not correlate to concentration
  expression of TLR4: reduced
[2]; qPCR and western blot, vs LPS stimulated
  expressions of IL-1β, NLRP3 and caspase-1 (mRNA and protein): significantly reduced
Caco-2 cells; 10 μmol/L, LPS 100 ng/mL stimulated
  expression of Occludin and ZO-1: able to rescue expression levels
Caco-2 cells; MR2938 alone, without LPS
  Occludin and ZO-1 protein levels: little changes
[3]; i.p. 6.5 mg/kg (145 μg)
  Amount in brain: 236.7 ng
[3]; i.p. 6.5 mg/kg
  Concentration in brain: 222.07 ng/g
[4]
  mRNA level of proinflammatory cytokines: significantly decreased
[5]; iv, 3 mg/kg i.v., mean n = 3
  AUC(0-inf): 1070 ng·h/mL
  AUC(0-t): 1060 ng·h/mL
  Cmax: 1030 ng/mL
  half-life: 2.25 h
[5]; iv, 3 mg/kg i.v., mean n = 3, read-out: Cl (plasma clearance)
  clearance: 47.2 mL/min/kg
[5]; oral, 10 mg/kg p.o. vs 3 mg/kg i.v., from AUCInf, read-out: F (oral bioavailability)
  bioavailability: 59%
[5]; po, 10 mg/kg p.o., mean n = 3
  AUC(0-inf): 2110 ng·h/mL
  AUC(0-t): 2080 ng·h/mL
  Cmax: 592 ng/mL
  Tmax: 0.667 h
  half-life: 2.87 h
